The source made the active and inactive calls. No cut-off for these calls is given here.

This is an account of results in ChEMBL document CHEMBL2417435, “The discovery of potent blockers of the canonical transient receptor channels, TRPC3 and TRPC6, based on an anilino-thiazole pharmacophore” (Bioorg Med Chem Lett, 2013).

In data set [1] the target is T1, Short transient receptor potential channel 6 (Homo sapiens, UniProt Q9Y210).
T1 sequence (Q9Y210 whole entry): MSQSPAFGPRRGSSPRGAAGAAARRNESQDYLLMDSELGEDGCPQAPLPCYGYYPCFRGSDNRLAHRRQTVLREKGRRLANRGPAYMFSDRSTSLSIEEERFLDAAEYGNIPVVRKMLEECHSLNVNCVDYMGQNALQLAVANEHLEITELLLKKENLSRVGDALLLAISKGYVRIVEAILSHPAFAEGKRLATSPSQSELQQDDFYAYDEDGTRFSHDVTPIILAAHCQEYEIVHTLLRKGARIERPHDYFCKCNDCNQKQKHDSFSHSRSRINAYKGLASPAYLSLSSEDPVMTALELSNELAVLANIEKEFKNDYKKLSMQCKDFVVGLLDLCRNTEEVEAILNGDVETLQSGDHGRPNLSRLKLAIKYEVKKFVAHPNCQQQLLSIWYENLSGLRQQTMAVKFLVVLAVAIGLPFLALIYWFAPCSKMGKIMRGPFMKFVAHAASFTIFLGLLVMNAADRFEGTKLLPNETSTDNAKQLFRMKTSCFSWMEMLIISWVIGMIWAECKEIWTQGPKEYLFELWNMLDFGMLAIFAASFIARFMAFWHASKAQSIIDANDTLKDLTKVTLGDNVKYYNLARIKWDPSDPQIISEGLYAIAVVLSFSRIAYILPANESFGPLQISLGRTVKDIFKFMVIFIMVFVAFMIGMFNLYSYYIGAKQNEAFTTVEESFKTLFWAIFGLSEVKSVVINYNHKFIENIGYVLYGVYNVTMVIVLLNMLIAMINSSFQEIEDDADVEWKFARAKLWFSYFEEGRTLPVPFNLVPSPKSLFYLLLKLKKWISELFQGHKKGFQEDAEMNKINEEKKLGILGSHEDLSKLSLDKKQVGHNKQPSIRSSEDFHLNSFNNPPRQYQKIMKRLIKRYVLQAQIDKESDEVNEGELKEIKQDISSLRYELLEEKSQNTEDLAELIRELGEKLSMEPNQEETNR
Briefly: Inhibition of human recombinant TRPC6 expressed in HEK293-MSRII cells assessed as carbachol-stimulated Ca2+/Na+ influx after 10 mins by FLIPR assay. The format is cell-based.

Data set [2] concerns the target T2, Short transient receptor potential channel 3 (Homo sapiens, UniProt Q13507).
T2 sequence (Q13507 whole entry): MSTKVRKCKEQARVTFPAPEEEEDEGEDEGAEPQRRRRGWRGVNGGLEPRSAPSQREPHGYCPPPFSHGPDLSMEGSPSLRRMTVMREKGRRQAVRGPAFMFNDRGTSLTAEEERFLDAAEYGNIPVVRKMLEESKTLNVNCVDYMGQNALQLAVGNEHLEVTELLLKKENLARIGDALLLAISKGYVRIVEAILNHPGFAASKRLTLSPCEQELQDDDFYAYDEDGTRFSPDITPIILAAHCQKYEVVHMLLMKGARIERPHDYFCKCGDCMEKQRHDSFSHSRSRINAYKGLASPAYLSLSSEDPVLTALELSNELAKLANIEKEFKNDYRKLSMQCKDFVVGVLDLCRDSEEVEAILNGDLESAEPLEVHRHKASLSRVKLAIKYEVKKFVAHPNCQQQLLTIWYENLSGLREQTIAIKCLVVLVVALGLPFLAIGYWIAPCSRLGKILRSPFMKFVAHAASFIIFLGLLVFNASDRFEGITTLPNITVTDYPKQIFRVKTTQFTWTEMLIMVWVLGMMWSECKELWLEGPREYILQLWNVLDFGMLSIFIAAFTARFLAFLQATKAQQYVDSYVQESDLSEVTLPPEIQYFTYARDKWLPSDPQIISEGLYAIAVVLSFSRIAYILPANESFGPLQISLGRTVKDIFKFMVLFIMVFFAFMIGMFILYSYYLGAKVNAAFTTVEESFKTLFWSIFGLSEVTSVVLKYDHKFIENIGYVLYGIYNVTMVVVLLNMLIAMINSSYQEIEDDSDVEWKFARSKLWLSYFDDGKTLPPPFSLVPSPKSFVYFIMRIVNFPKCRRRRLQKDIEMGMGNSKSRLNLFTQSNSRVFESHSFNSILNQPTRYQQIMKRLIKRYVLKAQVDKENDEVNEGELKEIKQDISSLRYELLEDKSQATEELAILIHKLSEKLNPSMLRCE
Briefly: Inhibition of human recombinant TRPC3 expressed in HEK293-MSRII cells assessed as carbachol-stimulated Ca2+/Na+ influx after 10 mins by FLIPR assay. It is filed as cell-based.

Data set [3] in a line: Oral bioavailability in rat at 0.93 mg/kg. It is filed as ADME, organism-based. Conditions: in vivo.
For data set [4], the system named is Rattus norvegicus. Briefly: Volume of distribution at steady state in rat at 0.93 mg/kg, iv. The format is ADME, organism-based. The arrangement: dose 0.93 mg/kg, route intravenous. Conditions: in vivo.
Data set [5] in a line: Cmax in rat at 0.93 mg/kg, iv. It is filed as ADME, organism-based. Set-up: dose 0.93 mg/kg, route intravenous. Conditions: in vivo.
The test system of data set [6] is Rattus norvegicus. Briefly: Dose normalized AUC in rat at 0.93 mg/kg, iv. The arrangement: dose 0.93 mg/kg, route intravenous. It is filed as ADME, organism-based. The following applies: in vivo.
Data set [7] deals with Rattus norvegicus. Briefly: Mean residence time in rat at 0.93 mg/kg, iv. The arrangement: dose 0.93 mg/kg, route intravenous. Conditions: in vivo. The format is ADME, organism-based.
The nature of data set [8]: Mean residence time in rat at 1.06 mg/kg, iv. Conditions: in vivo. The arrangement: dose 1.06 mg/kg, route intravenous. The format is ADME, organism-based.
Data set [9] can be described thus: Cmax in rat at 1.06 mg/kg, iv. The arrangement: dose 1.06 mg/kg, route intravenous. It is filed as ADME, organism-based. Conditions: in vivo.
The nature of data set [10]: Volume of distribution at steady state in rat at 1.06 mg/kg, iv. The following applies: in vivo, read-out: Vdss. It is filed as ADME, organism-based. Set-up: dose 1.06 mg/kg, route intravenous.
A short description of data set [11]: Clearance in rat at 1.06 mg/kg, iv. It is filed as ADME, organism-based. Set-up: dose 1.06 mg/kg, route intravenous. The following applies: in vivo.
Data set [12] has as its system Rattus norvegicus. Briefly: Dose normalized AUC in rat at 1.06 mg/kg, iv. The format is ADME, organism-based. The arrangement: dose 1.06 mg/kg, route intravenous. Conditions: in vivo.
The nature of data set [13]: Oral bioavailability in rat at 1.06 mg/kg. The following applies: in vivo. The format is ADME, organism-based.
In data set [14] the test system is Rattus norvegicus. Briefly: Dose normalized AUC in rat at 1.05 mg/kg, iv. The following applies: in vivo. It is filed as ADME, organism-based. Set-up: dose 1.05 mg/kg, route intravenous.
Data set [15] is described as follows: Clearance in rat at 1.05 mg/kg, iv. The format is ADME, organism-based. Set-up: dose 1.05 mg/kg, route intravenous. Conditions: in vivo.
Data set [16] can be described thus: Mean residence time in rat at 1.05 mg/kg, iv. It is filed as ADME, organism-based. The arrangement: dose 1.05 mg/kg, route intravenous. Conditions: in vivo.
The nature of data set [17]: Cmax in rat at 1.05 mg/kg, iv. The format is ADME, organism-based. Set-up: dose 1.05 mg/kg, route intravenous. The following applies: in vivo.
Data set [18] can be described thus: Oral bioavailability in rat at 1.05 mg/kg. Conditions: in vivo. It is filed as ADME, organism-based.
Data set [19] has as its system Rattus norvegicus. Briefly: Dose normalized AUC in rat at 0.86 mg/kg, iv. The format is ADME, organism-based. The arrangement: dose 0.86 mg/kg, route intravenous. Conditions: in vivo.
Data set [20] can be described thus: Oral bioavailability in rat at 0.86 mg/kg. It is filed as ADME, organism-based. Conditions: in vivo.
Data set [21] is described as follows: Clearance in rat at 0.86 mg/kg, iv. It is filed as ADME, organism-based. Conditions: in vivo. Set-up: dose 0.86 mg/kg, route intravenous.
Data set [22] in a line: Cmax in rat at 0.86 mg/kg, iv. It is filed as ADME, organism-based. The arrangement: dose 0.86 mg/kg, route intravenous. Conditions: in vivo.
A short description of data set [23]: Mean residence time in rat at 0.86 mg/kg, iv. It is filed as ADME, organism-based. The arrangement: dose 0.86 mg/kg, route intravenous. The following applies: in vivo.
For data set [24], the target named is T3, Short transient receptor potential channel 6 (Homo sapiens) (UniProt Q9Y210).
T3 sequence (whole entry): T1 sequence (Q9Y210 whole entry)
Briefly: Inhibition of human recombinant TRPC6 expressed in HEK293 cells assessed as 1-oleoyl-2-acetyl-glycerol-stimulated current at 0.01 to 0.03 uM by whole cell electrophysiology assay. It is filed as cell-based.

The target of data set [25] is T4, Short transient receptor potential channel 3 (Homo sapiens) (UniProt Q13507).
T4 sequence (whole entry): T2 sequence (Q13507 whole entry)
Briefly: Inhibition of human recombinant TRPC3 expressed in HEK293 cells assessed as 1-oleoyl-2-acetyl-glycerol-stimulated current at 0.01 to 0.03 uM by whole cell electrophysiology assay. The format is cell-based.

In the case of `COc1ccc(Nc2nc(C(=O)N3CCc4ccccc4C3)cs2)cc1`, the IC50 was 500 nM in [1] and 1260 nM in data set [2]. The bioavailability in data set [3] was 1%. The molecule further registered a Vdss in [4] of 0.7 L/kg. For the same molecule, the peak level in data set [5] (Cmax) was 250 ng/mL. In data set [6], this molecule came in with an AUC/dose of 0.14 kg·h/L. The MRT in data set [7] was determined as 0.3 h.

On to `Cc1sc(Nc2ccc3c(c2)OCO3)nc1C(=O)N1CCc2ncccc2C1C` (configuration not stated), for which the MRT in data set [8] is 1.3 h. Besides, the results for the IC50 in data set [1] and in data set [2] were 1260 nM and 10000 nM, respectively. The molecule further returned a Cmax in [9] of 1800 ng/mL. The Vd in data set [10] worked out at 0.7 L/kg. In data set [11], the clearance turned out to be 9.3 mL/min/kg. This molecule returned an AUC/dose in data set [12] of 1.86 kg·h/L. Moreover, in [13], the bioavailability was 65%.

With `Cc1sc(Nc2ccc(Cl)cc2F)nc1C(=O)N1CCC[C@@H](C)[C@H]1C`, the IC50 in data set [1] is 1600 nM; in data set [2], 1000 nM.

On to `Cc1sc(Nc2ccc3c(c2)OCO3)nc1C(=O)N1CCc2ccccc2C1C` (configuration not stated), for which the IC50 in data set [1] is 32 nM; in data set [2] it was 316 nM.

Regarding `CC1CCCN(C(=O)c2csc(Nc3ccc4c(c3)OCO4)n2)C1C` (configuration not stated), in data set [14], the AUC/dose worked out at 0.2 kg·L·h. The IC50 in data set [1] was determined as 16 nM; in data set [2], 80 nM. This molecule came in with a clearance in data set [15] of 86 mL/min/kg. For the same molecule, the MRT in data set [16] is 2.1 h. The molecule also displayed a Cmax in data set [17] of 340 ng/mL. The bioavailability in data set [18] is < 1%.

For the molecule `O=C(c1csc(Nc2ccc3c(c2)OCO3)n1)N1CCc2ccccc2C1`, the IC50 in [1] came out at 160 nM; in data set [2] it was 500 nM.

As for `Cc1ccc(Nc2nc(C(=O)N3CCC(C)CC3)cs2)cc1`, the figures for the IC50 in [1] and in [2] were 400 nM and 630 nM, respectively.

In the case of `CC1c2ccccc2CCN1C(=O)c1csc(Nc2ccc3c(c2)OCO3)n1` (configuration not stated), the IC50 in [1] was found to be 63 nM; in data set [2] it was 316 nM.

With `CC1CCN(C(=O)c2csc(Nc3ccccc3Cl)n2)CC1`, the results for the half-inhibitory concentration (IC50) in [1] and in [2] were 3160 nM and 6300 nM, respectively.

For the molecule `CC1CCCN(C(=O)c2nc(Nc3cc4c(cc3F)OCO4)sc2Cl)C1C` (configuration not stated), the AUC/dose in data set [19] was found to be 0.3 kg·L·h. Further, the IC50 in data set [1] turned out to be 4 nM; in data set [2], 32 nM. This molecule registered a bioavailability in data set [20] of 7%. In addition, the clearance in data set [21] was found to be 46 mL/min/kg. In [22], this molecule returned a Cmax of 490 ng/mL. In [23], this molecule showed an MRT of 0.4 h.

As to `CC1CCN(C(=O)c2csc(Nc3ccc(Cl)cc3)n2)CC1`, the IC50 in [1] and in data set [2] was 800 nM in each case. For the same molecule, the inhibition entry in data set [24] and in data set [25] was “Active” in each case.

For `Cc1ccc(Nc2nc(C(=O)N3CCC(C4CCCCC4)CC3)cs2)cc1`, the values for the IC50 in [1] and in data set [2] were 4000 nM and 6300 nM, respectively.
